In patent US9133212B1, “Inhibitors of hemeprotein-catalyzed lipid peroxidation” (Vanderbilt University, priority 2005, dated 2015):
Like-named read-outs stand apart in the source and are kept apart here.

How the values were obtained:
[1] = system: HepG2 cells; test: Direct cellular toxicity (total cellular ATP levels); format: cell-based; conditions: Homo sapiens, concentration causing a 50% decrease in total cellular ATP levels, read-out: Cellular Toxicity (EC50, μM ± SD)
Excerpt: Microsomal stability is expressed as % of unmodified compound remaining after reaction. Cellular toxicity is expressed as the con-centration causing a 50% decrease in total cellular ATP levels. Values represent means±S.E.M.

[2] = target: T1, myoglobin (Mb) (Homo sapiens, UniProt P02144); test: Inhibition of myoglobin-induced arachidonic acid oxidation; format: biochemical
T1 sequence (P02144 1-154): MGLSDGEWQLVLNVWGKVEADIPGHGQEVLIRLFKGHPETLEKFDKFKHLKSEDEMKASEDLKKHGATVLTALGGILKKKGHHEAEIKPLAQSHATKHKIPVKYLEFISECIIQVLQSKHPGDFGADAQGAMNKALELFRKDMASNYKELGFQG
Protocol: (§1) The inhibition of the lipid peroxidation produced by myoglobin (Mb) and COX-1 by the different analogs was tested. Values represent the IC50 for each hemeprotein and are expressed as means±S.E.M. a: value reported from (1.). b: value reported from (3).

[3] = target: T2, COX-1 (Homo sapiens, UniProt P23219); test: Inhibition of COX-1 oxidation of arachidonic acid (Example 6); format: biochemical
Protocol: as §1

[4] = Microsomal stability; conditions: % of unmodified compound remaining after reaction
[5] = target: T3, ferryl myoglobin (Homo sapiens, UniProt P02144); test: Reduction of ferryl myoglobin to ferric myoglobin; format: biochemical
T3 sequence (P02144 1-154): T1 sequence (P02144 1-154)
Protocol: Ferryl myoglobin was generated by incubating ferric myoglobin 10 μM in PBS with 10 μM hydrogen peroxide until there was no more change in the peak at 421 nm. At this time, the analogs were added to the cuvette at the final concentrations indicated and spectra were recorded every 15 sec for 2 min. The initial rate of reduction was calculated as the variation of absorbance at 409 nm in the first two minutes after adding the analogs. In this period of time the rates of reduction were linear for each concentration of analog.

[6] = target: PGHS-1 (COX-1) (Homo sapiens, UniProt P23219); test: Inhibition of PGHS-1 (COX-1), [14C]arachidonic acid oxidation; format: biochemical; conditions: for IC50: in vitro system
Protocol: At this time the reaction was initiated by addition of 0.5 μM of [14C]arachidonic acid. After 8 seconds, the reaction was stopped by adding an ice cold mixture of diethyl ether/methanol/4.0 M citric acid. PGHS-1 activity was expressed as percent oxidation of arachidonic acid compared with control where no inhibitor was added. Each data point represents the mean±S.E.M of six values.
(§2) Hematin-reconstituted COX-1 (5.4 nM) or COX-2 (10.8 nM) in Tris HCl 100 mM, pH 8.0, 500 μM phenol, was pre-incubated with N-dimethyl pyrimidinol (DM, plain line) or N-dimethyl pyridinol (DR, dashed line) at varying concentrations at 37° C. for 20 minutes. At this time the reaction was initiated by addition of 0.5 μM of [14C] arachidonic acid. After 8 seconds, the reaction was stopped by adding an ice cold mixture of diethyl ether/methanol/4.0 M citric acid. PGHS-1 activity was expressed as percent oxidation of arachidonic acid compared with control where no inhibitor was added. Each data point represents the mean±S.E.M of six values.

[7] = target: T4, PGHS-2 (COX-2) (Homo sapiens, UniProt P35354); test: Inhibition of PGHS-2 (COX-2), [14C]arachidonic acid oxidation; format: biochemical; conditions: for inhibition of PGHS-2 (COX-2), in words: compared with its PGHS-1 inhibition
T4 sequence (P35354 18-604): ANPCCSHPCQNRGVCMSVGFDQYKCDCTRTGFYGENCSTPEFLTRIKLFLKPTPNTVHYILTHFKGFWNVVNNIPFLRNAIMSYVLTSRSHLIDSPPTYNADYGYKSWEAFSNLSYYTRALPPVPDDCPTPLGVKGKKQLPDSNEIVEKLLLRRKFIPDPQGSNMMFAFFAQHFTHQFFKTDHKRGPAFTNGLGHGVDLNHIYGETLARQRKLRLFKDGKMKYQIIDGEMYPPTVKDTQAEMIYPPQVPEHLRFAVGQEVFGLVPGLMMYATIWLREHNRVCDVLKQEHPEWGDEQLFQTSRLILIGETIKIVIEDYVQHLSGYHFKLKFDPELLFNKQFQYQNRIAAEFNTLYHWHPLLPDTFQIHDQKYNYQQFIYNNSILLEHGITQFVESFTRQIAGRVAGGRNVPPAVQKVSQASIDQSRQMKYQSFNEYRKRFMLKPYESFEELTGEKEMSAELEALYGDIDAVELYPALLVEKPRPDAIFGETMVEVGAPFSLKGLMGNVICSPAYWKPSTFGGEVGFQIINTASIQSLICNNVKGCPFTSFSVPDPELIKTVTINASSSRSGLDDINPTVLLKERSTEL
Protocol: as §2

[8] = system: HepG2 liver cell line
Protocol: HepG2 were plated in multiple 96-well plates at 2×10^4 cells per well and pretreated with ethanol 100 μM for 2 hours. […] Cell viability after 24 h was determined by measuring ATP levels by luminescence assay.

[9] = target: hemoglobin (Homo sapiens, UniProt P68871+P69905); test: Inhibition of hemoglobin-catalyzed lipid peroxidation; format: biochemical; conditions: read-out: IC50 for hemoglobin (hemoprotein-catalyzed lipid peroxidation)
[10] = system: rat model of rhabdomyolysis; test: Rat model of rhabdomyolysis (renal failure from myoglobin-catalyzed lipid peroxidation); format: in vivo; conditions: dose that produced plasma levels in the therapeutic range for humans
[11] = target: T2, COX-1; conditions: oxidation of arachidonic acid, Table 2, footnote b; read-out: COX-1 IC50 (μM ± SEM), value reported from (3); cited from earlier work
[12] = bicyclic compounds, structure table, read-out: Oxidation of AA by Mb IC50
[13] = oxidation of arachidonic acid, Table 2, read-out: Mb IC50 (μM ± SEM)
[14] = bicyclic compounds, structure table, read-out: Oxidation of AA by COX-1 IC50
[15] = oxidation of arachidonic acid, Table 2, read-out: COX-1 IC50 (μM ± SEM)

T2 sequence (P23219 24-599, species assumed): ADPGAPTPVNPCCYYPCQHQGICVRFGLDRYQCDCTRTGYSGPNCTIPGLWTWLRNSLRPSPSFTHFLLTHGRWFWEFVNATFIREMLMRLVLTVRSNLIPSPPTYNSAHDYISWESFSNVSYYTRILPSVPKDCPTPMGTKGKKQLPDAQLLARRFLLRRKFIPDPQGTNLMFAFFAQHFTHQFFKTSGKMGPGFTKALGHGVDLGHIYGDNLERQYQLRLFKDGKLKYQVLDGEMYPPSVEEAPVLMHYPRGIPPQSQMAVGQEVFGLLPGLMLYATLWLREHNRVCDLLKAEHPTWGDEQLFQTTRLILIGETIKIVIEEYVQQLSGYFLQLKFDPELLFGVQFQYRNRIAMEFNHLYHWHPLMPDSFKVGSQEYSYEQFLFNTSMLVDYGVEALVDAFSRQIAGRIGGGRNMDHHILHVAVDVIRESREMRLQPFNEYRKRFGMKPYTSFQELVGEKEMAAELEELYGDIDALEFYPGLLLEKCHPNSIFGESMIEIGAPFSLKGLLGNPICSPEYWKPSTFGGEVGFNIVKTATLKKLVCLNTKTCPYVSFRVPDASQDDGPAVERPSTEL
PGHS-1 (COX-1), sequence (P23219 24-599, species assumed): as above
hemoglobin, sequence (P69905 2-142 limits assumed): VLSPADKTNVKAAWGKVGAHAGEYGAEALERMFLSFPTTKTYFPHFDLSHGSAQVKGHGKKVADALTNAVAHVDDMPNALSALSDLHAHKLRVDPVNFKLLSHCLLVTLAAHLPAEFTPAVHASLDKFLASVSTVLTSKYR
hemoglobin, sequence (P68871 2-147 limits assumed): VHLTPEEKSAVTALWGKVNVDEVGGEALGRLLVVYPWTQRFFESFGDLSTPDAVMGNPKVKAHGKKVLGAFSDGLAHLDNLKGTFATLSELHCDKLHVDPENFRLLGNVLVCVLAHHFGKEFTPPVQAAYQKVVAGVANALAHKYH

Compound	EC50 [1] [µM]	IC50 [2, 12] [µM]	IC50 [2, 13] [µM]	IC50 [3, 14] [µM]	IC50 [3, 15] [µM]	Microsomal stability % left [4] [%]	other results
O=C1NCc2cc(O)cnc2N1 [Analog 12]	4760 ± 36	1.15 ± 0.3	1.2 ± 0.1	451	451 ± 35	158 ± 33	
2-(dimethylamino)pyrimidin-5-ol [DM-Pym]							times more potent in reducing ferryl myoglobin than acetaminophen ([5]; relative to acetaminophen): 14 times; times more potent as an inhibitor of PGHS-1 than acetaminophen ([6]; relative to acetaminophen): 10 times; times more potent as an inhibitor of PGHS-2 than acetaminophen ([7]; relative to acetaminophen): 10 times; cytotoxicity in HepG2 cell line stimulated with ethanol [8]: not cytotoxic
CN(C)c1ccc(O)cn1 [DM-Pyr, 6-(dimethylamino)pyridin-3-ol]							inhibition of PGHS-2 (COX-2), in words [7]: only a weak inhibitor
CN(C)c1ncc(O)cn1 [DM-Pym, 2-(dimethylamino)pyrimidin-5-ol]							potency in reducing ferryl myoglobin, in words ([5]; compared with acetaminophen): remarkably more potent than acetaminophen; IC50 [6]: 21 µM; inhibition of PGHS-2 (COX-2), in words [7]: equally effective; cytotoxicity in HepG2 cell line stimulated with ethanol [8]: does not cause cytotoxicity
CC(=O)Nc1ccc(O)cc1 [ApAP, acetaminophen]	594 ± 147						IC50 [9]: 15 µM; lipid peroxidation in rhabdomyolysis model ([10]; listed as Acetaminophen): blocked; renal failure in rhabdomyolysis model ([10]; listed as Acetaminophen): prevented; lipid peroxidation in rhabdomyolysis model ([10]; listed as acetaminophen): blocks; renal failure in rhabdomyolysis model ([10]; listed as acetaminophen): blocks; IC50 [6]: 250 µM; IC50 [11]: 372 µM
Cc1nc2c(c(C)c1O)COC(=O)N2 [Analog 14]	> 5000	5.34 ± 0.1	5.3 ± 0.1	198 ± 50.1	198 ± 25	97 ± 3	
Cc1nc2c(c(C)c1O)CNC(=O)N2 [Analog 13]	2960 ± 284	2.29 ± 0.6	2.3 ± 0.4	> 1000	> 1000	87 ± 7	inhibition of COX-1, in words ([3]; at concentrations up to 1 mM): not able to significantly inhibit
